Molecules are shown by their SMILES. The source made the active and inactive calls. Some results are limits rather than exact numbers.

By MIC is commonly meant the smallest concentration in the dilution series that meets the test's criterion for growth inhibition.

The subject of assay [1] is Nakaseomyces glabratus. The assay is described as follows: Antifungal activity against Candida glabrata assessed as inhibition of microbial growth by two fold broth microdilution method. Format: functional.
The subject of assay [2] is Candida tropicalis. The assay is described as follows: Antifungal activity against Candida tropicalis assessed as inhibition of microbial growth by two fold broth microdilution method. Format: functional. A general note: Broth dilution looks for growth in wells or tubes with falling amounts of substance.
Assay [3] has as its system Pichia kudriavzevii. In words: Antifungal activity against Candida krusei assessed as inhibition of microbial growth by two fold broth microdilution method. Format: functional.
Assay [4] has as its system Aspergillus fumigatus. In words: Antifungal activity against Aspergillus fumigatus assessed as inhibition of microbial growth by two fold broth microdilution method. Format: functional.
Assay [5] relates to Candida albicans. In words: Antifungal activity against Candida albicans assessed as inhibition of microbial growth by two fold broth microdilution method. Format: functional.
The subject of assay [6] is Candida albicans. In words: Antifungal activity against fluconazole-resistant Candida albicans CaR assessed as inhibition of microbial growth by two fold broth microdilution method. Format: functional.
Assay [7] concerns Candida albicans. In words: Antifungal activity against fluconazole-resistant Candida albicans 901 assessed as inhibition of microbial growth by two fold broth microdilution method. Format: functional.
Assay [8] has as its system Candida albicans. The assay is described as follows: Antifungal activity against fluconazole-resistant Candida albicans 17# assessed as inhibition of microbial growth by two fold broth microdilution method. Format: functional.
Assay [9] has as its system Candida albicans. In words: Antifungal activity against fluconazole-resistant Candida albicans 904 assessed as inhibition of microbial growth by two fold broth microdilution method. Format: functional.
Assay [10] has as its system Candida albicans. The assay is described as follows: Antifungal activity against fluconazole-resistant Candida albicans 632 assessed as inhibition of microbial growth by two fold broth microdilution method. Format: functional.
In assay [11] the test system is Candida albicans. The assay is described as follows: Antifungal activity against Candida albicans ATCC SC5314 assessed as decrease in fungal cell density by polarizing microscopy. Format: functional, organism-based.

For the compound `O=C(/C=C/c1ccc2c(c1)OCCO2)NCC(=O)NCc1cccnc1`, the minimal inhibitory concentration (MIC) in assay [1] was 4 µg/mL; in assay [2] it was 2 µg/mL; in [3] it was 4 µg/mL; in [4], more than 16 µg/mL; in assay [5] it was 2 µg/mL.

As to `O=C(/C=C/c1ccc2ccccc2c1)NC(Cn1ccnc1)C(=O)Nc1ccccc1` (stereo unspecified), the MIC came to 0.25 µg/mL in [1]; 0.5 µg/mL in assay [2]; 0.5 µg/mL in assay [3]; 8 µg/mL in assay [4]; 0.5 µg/mL in assay [5].

Regarding `O=C(/C=C/c1cccc2ccccc12)NC(Cn1ccnc1)C(=O)NCc1ccccc1` (stereo unspecified), the minimal inhibitory concentration (MIC) is 0.5 µg/mL in [1]; 0.5 µg/mL in assay [2]; 2 µg/mL in assay [3]; more than 16 µg/mL in assay [4]; 0.5 µg/mL in [5].

As to `CN(CC(=O)NCc1ccncc1)C(=O)/C=C/c1ccc2ccccc2c1`, the MIC in assay [1] was 0.125 µg/mL; in assay [6] it was 8 µg/mL; in assay [2], 0.25 µg/mL; in assay [7], more than 16 µg/mL; in assay [3], 0.25 µg/mL; in assay [8], more than 16 µg/mL. Besides, the MIC in [4] was 8 µg/mL; in [9], more than 16 µg/mL; in assay [10], 8 µg/mL; in [5], 0.25 µg/mL.

For `O=C(NCc1cccnc1)C(=O)N/N=C/c1ccc2c(c1)OCCO2`, the MIC in assay [1] was 0.5 µg/mL; in assay [2], 1 µg/mL; in assay [3], 2 µg/mL; in assay [4] it was more than 16 µg/mL; in [5], 0.5 µg/mL.

Regarding `CN(CC(=O)NCc1cccnc1)C(=O)/C=C/c1ccc2c(c1)OCCO2`, the minimal inhibitory concentration (MIC) in assay [1] was 0.5 µg/mL; in assay [2], 0.5 µg/mL; in assay [3], 4 µg/mL; in [4], more than 16 µg/mL; in assay [5], 2 µg/mL.

Consider `O=C(/C=C/c1ccc2ccccc2c1)NCC(=O)NCc1cccnc1`, for which the MIC was 0.5 µg/mL in assay [1]; 2 µg/mL in assay [2]; 2 µg/mL in assay [3]; more than 16 µg/mL in [4]; 0.5 µg/mL in [5].

On to `O=C(NCc1ccncc1)C(=O)N/N=C/c1ccc2c(c1)OCCO2`, for which the minimum inhibitory concentration (MIC) in assay [1] was 1 µg/mL; in assay [2] it was 1 µg/mL; in assay [3], 0.5 µg/mL; in assay [4], 8 µg/mL; in assay [5], 0.5 µg/mL.

For the compound `O=C(NCc1ccncc1)C(=O)N/N=C/c1ccc2ccccc2c1`, the MIC in assay [1] is 0.5 µg/mL; in assay [2], 0.5 µg/mL; in [3], 0.25 µg/mL; in assay [4], more than 16 µg/mL; in [5] it was 0.25 µg/mL.

Turning to `CN(CC(=O)NCc1ccncc1)C(=O)/C=C/c1ccc2c(c1)OCCO2`, the MIC in assay [1] is 1 µg/mL; in [2], 0.5 µg/mL; in assay [3], 1 µg/mL; in [4], more than 16 µg/mL; in [5], 0.5 µg/mL.

Take `O=C(/C=C/c1ccc2ccccc2c1)NCC(=O)NCc1ccncc1`: the MIC was 0.5 µg/mL in assay [1]; 0.25 µg/mL in assay [2]; 1 µg/mL in [3]; more than 16 µg/mL in assay [4]; 0.25 µg/mL in [5].

As to `O=C(/C=C/c1ccc2c(c1)OCCO2)NC(Cn1ccnc1)C(=O)NCc1ccccc1` (stereo unspecified), the minimum inhibitory concentration (MIC) in assay [1] is 1 µg/mL; in assay [2], 0.5 µg/mL; in assay [3], 2 µg/mL; in assay [4], more than 16 µg/mL; in [5], 0.5 µg/mL.

Consider `O=C(NCc1cccnc1)C(=O)N/N=C/c1cccc2ccccc12`, for which the MIC in assay [1] is 0.5 µg/mL; in assay [2], 0.5 µg/mL; in assay [3], 0.25 µg/mL; in assay [4] it was more than 16 µg/mL; in assay [5] it was 0.5 µg/mL.

Turning to `O=C(NCc1cccnc1)C(=O)N/N=C/c1ccc2ccccc2c1`, the MIC in [1] worked out at 0.25 µg/mL; in [2], 0.25 µg/mL; in assay [3], 0.5 µg/mL; in [4], 8 µg/mL; in assay [5], 1 µg/mL.

For the compound `CN(CC(=O)NCc1cccnc1)C(=O)/C=C/c1ccc2ccccc2c1`, the MIC is 1 µg/mL in assay [1]; 1 µg/mL in [2]; 0.5 µg/mL in assay [3]; more than 16 µg/mL in assay [4]; 0.5 µg/mL in [5].

`CN(C/C=C/c1ccccc1)Cc1cccc2ccccc12` [NAFTIFINE]: the minimum inhibitory concentration (MIC) in [1] was 1 µg/mL; in assay [6], more than 16 µg/mL; in assay [2], 2 µg/mL; in assay [7], more than 16 µg/mL; in [3], 0.5 µg/mL; in assay [8], 8 µg/mL. In addition, the minimal inhibitory concentration (MIC) in [4] was 4 µg/mL; in assay [9], 8 µg/mL; in assay [10], 8 µg/mL; in [5] it was 0.5 µg/mL. For the same compound, the outcome in assay [11] was Active.

For `CN(CC(=O)NCc1ccncc1)C(=O)/C=C/c1cccc2ccccc12`, the MIC came to 0.25 µg/mL in assay [1]; 0.25 µg/mL in [2]; 0.5 µg/mL in assay [3]; 4 µg/mL in [4]; 0.125 µg/mL in assay [5].

On to `O=C(/C=C/c1cccc2ccccc12)NCC(=O)NCc1ccncc1`, for which the minimum inhibitory concentration (MIC) in [1] turned out to be 0.25 µg/mL; in assay [2], 0.25 µg/mL; in assay [3] it was 0.5 µg/mL; in [4], 4 µg/mL; in assay [5], 0.25 µg/mL.

For `O=C(/C=C/c1ccc2c(c1)OCCO2)NCC(=O)NCc1ccncc1`, the MIC was 0.5 µg/mL in assay [1]; 1 µg/mL in [2]; 0.5 µg/mL in assay [3]; more than 16 µg/mL in assay [4]; 0.5 µg/mL in assay [5].

Consider `CN(CC(=O)NCc1cccnc1)C(=O)/C=C/c1cccc2ccccc12`, for which the MIC was 0.5 µg/mL in assay [1]; 0.5 µg/mL in assay [2]; 0.25 µg/mL in assay [3]; more than 16 µg/mL in assay [4]; 0.5 µg/mL in assay [5].

`O=C(/C=C/c1ccc2c(c1)OCCO2)NC(Cn1ccnc1)C(=O)Nc1ccccc1` (stereo unspecified): the minimum inhibitory concentration (MIC) in [1] was 0.5 µg/mL; in assay [2] it was 0.25 µg/mL; in assay [3], 1 µg/mL; in [4], more than 16 µg/mL; in [5] it was 0.25 µg/mL.

For `O=C(/C=C/c1ccc2ccccc2c1)NC(Cn1ccnc1)C(=O)NCc1ccccc1` (stereo unspecified), the MIC was 0.5 µg/mL in [1]; 0.5 µg/mL in assay [2]; 4 µg/mL in assay [3]; 8 µg/mL in assay [4]; 2 µg/mL in assay [5].

As to `O=C(/C=C/c1cccc2ccccc12)NCC(=O)NCc1cccnc1`, the MIC in assay [1] amounted to 1 µg/mL; in assay [2], 0.5 µg/mL; in assay [3], 1 µg/mL; in [4], 8 µg/mL; in assay [5], 0.5 µg/mL.

Values taken from ChEMBL document CHEMBL4765419, “Design, synthesis and bioactivity evaluation of novel arylalkene-amide derivatives as dual-target antifungal inhibitors” (Eur J Med Chem, 2020).
